The test system of data set [1] is HGT-1 cells. Put plainly: Proton secretion assay (intracellular proton index IPX, SNARF-1-AM). Conditions: for ΔIPX (change in intracellular proton index vs untreated cells): 10 min incubation in KRHB, mean ± SEM, n = 4–8. The data set is classed as cell-based, human. The protocol:
The measurement of proton secretion from HGT-1 cells represents a well-established model for the identification of bitter compounds. By affecting extraoral bitter taste receptors with bitter compounds, a modulatory effect on proton secretion can be measured. For this purpose, cells were washed with KRHB and incubated with 3 μM of the intracellular pH indicator 1,5 carboxy-seminaphto-rhodafluor acetoxymethyl ester (SNARF-1-AM) under standard conditions. After 30 min, the cells were washed again with KRHB and then incubated with casein (0.01–10 μM equimolar related to the relevant forms αS1- and β-casein), hydrolysate (0.01–10 μM), or the peptides (0.01–200 μM). […] All substances were dissolved and diluted in KRHB. 1 mM histamine was used as a positive control. Measurements were performed using FlexStation 3 (Molecular Devices, USA). The excitation wavelength was 488 nm, and the emission wavelengths were 580 and 640 nm. For calibration (pH range 7.0–8.0), the intracellular and extracellular pH was adjusted with 2 μM nigericin in potassium buffer (20 mM NaCl, 110 mM KCl, 1 mM CaCl2, 1 mM MgSO4, 18 mM D-glucose, and 20 mM HEPES). The intracellular proton index (IPX) was calculated as the log2 value of the 580/640 ratio and compared with cells without treatment. Negative values represent increased secretion of protons and therefore stimulation of mechanisms regulating gastric acid secretion in HGT-1 cells. In contrast, positive values represent an inhibition of secretion compared to the untreated control.

Data set [2] in a line: Solubility of casein in the proton secretion assay. The data set is classed as physicochemical. The following applies: casein in KRHB, concentrations above 10 µM could not be investigated.
In data set [3] the test system is pepsin. Nature of the data set: In vitro gastric digestion of casein with targeted UHPLC-MS/MS-MRM quantitation of peptides. The data set is classed as in vitro ADME, porcine. Conditions: 37 °C, n = 4; for degradation of the peptide during further in vitro gastric digestion: SGF pH 3 with pepsin, up to 6 h. As to the method: The in vitro digestion was based on the Nature protocol established by Brodkorb et al.([30]) For this, simulated salivary fluid (SSF, containing 15.1 mM KCl, 3.7 mM KH2PO4, 13.6 mM NaHCO3, 0.15 mM MgCl2(H2O)6, 0.06 mM (NH4)2CO3, 1.1 mM HCl, and 1.5 mM CaCl2(H2O)2) and simulated gastric fluid (SGF, containing 6.9 mM KCl, 0.9 mM KH2PO4, 25.0 mM NaHCO3, 47.2 mM NaCl, 0.12 mM MgCl2(H2O)6, 0.5 mM (NH4)2CO3, 15.6 mM HCl, and 0.15 mM CaCl2(H2O)2) were prepared. A total amount of 100 mg casein was suspended in 3 mL of SSF and incubated for 5 min at 37 °C in the tube rotator. After taking a sample (500 μL, t = 0 h), 2 mL of SGF was added and the pH was adjusted to 3 with 100 μL of HCl (1 M). After addition of 125 μL of pepsin solution (80,000 U/mL in 10 mM HCl), 275 μL of H2O was added to fill up to 5 mL. This was followed by further incubation at 37 °C in a tube rotator for 6 h. 500 μL of samples was taken at 0.25, 0.5, 0.75, 1, 2, 3, 4, 5, and 6 h, respectively. The samples were frozen in liquid nitrogen and stored at −80 °C until further analysis. For MS experiments, all samples were diluted 1:1 with 10% MeCN.
All targeted proteomics LC–MS/MS measurements were performed using a Sciex ExionLC AC (Sciex, Darmstadt, Germany) coupled to a 6500+ QTrap LC–MS/MS system (Sciex, Darmstadt, Germany) operating in the positive electrospray ionization mode. Data acquisition and instrumentation control were performed with AnalystTF software (v 1.7.1; Sciex, Darmstadt, Germany). Separation was performed using a 100 × 2.1 mm, 1.7 μm, Kinetex C18 column (Phenomenex, Aschaffenburg, Germany) with a guard column of the same type with 0.1% aqueous formic acid and acetonitrile containing 0.1% formic acid at a flow rate of 0.25 mL/min. The gradient was based on the following scheme: 0 min, 15% B; 7 min, 40% B; 7.5 min, 98% B; 10.5 min, 98% B; 10.8 min, 15% B; and 15 min, 15% B. The column oven temperature was set at 40 °C, and the injection volume was 1 μL per sample. For MS/MS measurements, the same parameters were used for all samples (ion spray voltage […], source temperature 450 °C, nebulizing gas 60 psi, and heating gas 30 psi). Nitrogen was set to 35 psi and served as a curtain gas to effectively dissolve the ions. To optimize the parameters DP, CE, and collision cell exit potential for each peptide and transition (Supporting Information Table-SI 2), standard solutions of the five synthesized peptides were injected directly into the MS ion source. Ionization parameters were optimized in positive ESI mode using AnalystTF software (v 1.7.1; Sciex, Darmstadt, Germany). For the preparation of the calibration curves, five peptides were dissolved individually in D2O (600 μL) and the concentration of the stock solutions was determined by qNMR.[35] For each peptide, seven calibration solutions (0.5, 1, 5, 10, 50, 100, and 200 μM) were diluted in 5% MeCN from these stock solutions. The data were analyzed using MultiQuant software (v 3.0.3; Sciex, Darmstadt, Germany).

Data set [4] has as its system Caco-2 cell monolayers. Conditions: Caco-2; cited from earlier work. From the text:
In addition, transport through Caco-2 cell monolayers was ...

The values below come from article PMC9501810, “Bitter Peptides YFYPEL, [sequence], and [sequence], Released during Gastric Digestion of Casein, Stimulate Mechanisms of Gastric Acid Secretion via Bitter Taste Receptors TAS2R16 and TAS2R38” (Journal of Agricultural and Food Chemistry, 2022).

As for casein, the “ΔIPX (change in intracellular proton index vs untreated cells)” value in data set [1] (5 µM, positive = inhibited proton secretion) is listed as “+0.212 ± 0.029”; in data set [1] (10 µM, negative = stimulated, positive = inhibited proton secretion) it was “+0.441 ± 0.037”. For the same substance, the “change in mean IPX” value in data set [1] (casein concentrations below 5 µM (0.01–<5 µM, equimolar related to αS1- and β-casein)) is recorded as “No significant change”. Moreover, the solubility result in data set [2] is recorded as “poor solubility”.
Turning to “YYVPLGTQ [bitter casein peptide αS1-CN165–172]”, the “ΔIPX (change in intracellular proton index vs untreated cells)” value in data set [1] (0.1 µM, IPX = log2 of 580/640 ratio, negative = stimulated proton secretion) is −0.166 ± 0.017. The “degradation of the peptide during further in vitro gastric digestion” value in data set [3] is given as “no noticeable degradation”.
PVVVPPFLQPEVM: the “concentrations at which a significant ΔIPX was found” value in data set [1] (tested 0.01–200 µM, 10 min) is “at 1 and 10 μM only”. Further, the “highest concentration released during in vitro digestion” value in data set [3] (100 mg casein, SSF then SGF pH 3 with pepsin, 0–6 h, mean) is “up to 148.7 μM”. Besides, the “degradation of the peptide during further in vitro gastric digestion” value in data set [3] was “not further degraded”. In data set [4], the “transport through Caco-2 cell monolayers” value is given as “transport through Caco-2 cell monolayers was observed”.
